Values quoted from earlier work in patent US6838238B1, “Morphatides: novel shape and structure libraries” (Invitrogen Corporation, priority 1996, dated 2005).

Conditions: ionizes by hydration to yield the tetrahedral phenylboronate anion

In the case of `OB(O)c1ccccc1` [Phenylboronic acid], the pKa is listed as 8.86.
